From patent US5521196A, “5-HT1F agonists for the treatment of migraine” (Eli Lilly and Company, priority 1994, dated 1996)
Where a name gives a salt, the structure may show the parent alone.

test system: protein extravasation in the dura from stimulation of the trigeminal ganglion; test: not given; settings: iv

| SMILES | Inhibition of Protein Extravasation, i.v. ID50 [nmol/kg] |
| --- | --- |
| CCN(CC)C1CCc2cccc(Cl)c2C1.Cl (stereo not shown) [Compound IV, 8-chloro-2-diethylamino-1,2,3,4-tetrahydronaphthalene hydrochloride] | 1.2e-07 |

molecular target: T1, 5-HT1F receptor (Homo sapiens, UniProt P30939); test: biochemical; settings: Table I; displacement of 4.5-5.5 nM [3H]5-HT, 37° C., 30 minutes; read-out: 5-HT1F BINDING Ki
T1 sequence (P30939 1-366): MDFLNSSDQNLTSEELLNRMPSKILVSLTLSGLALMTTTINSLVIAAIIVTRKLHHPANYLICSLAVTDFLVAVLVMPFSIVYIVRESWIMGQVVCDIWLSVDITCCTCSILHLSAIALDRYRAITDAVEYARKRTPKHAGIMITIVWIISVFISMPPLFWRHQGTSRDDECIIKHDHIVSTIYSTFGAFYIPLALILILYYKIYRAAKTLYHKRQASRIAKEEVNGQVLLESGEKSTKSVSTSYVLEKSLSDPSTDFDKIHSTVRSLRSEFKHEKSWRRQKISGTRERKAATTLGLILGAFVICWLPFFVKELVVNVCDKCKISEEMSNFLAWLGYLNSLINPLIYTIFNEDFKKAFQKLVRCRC

| Ki [nM] | SMILES |
| --- | --- |
| 8.9 | Fc1ccc2[nH]cc(C3CCN(CCc4cnn(CC5CC5)c4)CC3)c2c1 [Example 20, 5-fluoro-3-<1-<2-<1-cyclopropylmethyl-1H-pyrazol-4-yl>ethyl>-4-piperidinyl>-1H-indole hydrochloride] |
| 14.5 | Clc1ccc2[nH]cc(C3CCN(CCc4cnn(CC5CC5)c4)CC3)c2c1 [Example 21, 5-chloro-3-<1-<2-<1-cyclopropylmethyl-1H-pyrazol-4-yl>ethyl>-4-piperidinyl>-1H-indole hydrochloride] |
| 52.5 | Fc1ccc2[nH]cc(C3CCN(CCc4cnn(Cc5ccccc5)c4)CC3)c2c1 [Example 22, 5-fluoro-3-<1-<2-<1-benzyl-1H-pyrazol-4-yl>ethyl>-4-piperidinyl>-1H-indolehydrochloride] |
| 4.3 | c1ccc(-n2cc(CCN3CCC(c4c[nH]c5ccccc45)CC3)cn2)cc1 [Example 23, 3-<1-<2-<1-phenyl-1H-pyrazol-4-yl>ethyl>-4-piperidinyl>-1H-indolehydrochloride] |
| 5.5 | Fc1ccc2[nH]cc(C3CCN(CCc4cnn(-c5ccccc5)c4)CC3)c2c1 [Example 24, 5-fluoro-3-<1-<2-<1-phenyl-1H-pyrazol-4-yl>ethyl>-4-piperidinyl>-1H-indoleoxalate] |
| 6.9 | Clc1ccc2[nH]cc(C3CCN(CCc4cnn(-c5ccccc5)c4)CC3)c2c1 [Example 25, 5-chloro-3-<1-<2-<1-phenyl-1H-pyrazol-4-yl>ethyl>-4-piperidinyl>-1H-indoleoxalate] |
| 13.8 | Brc1ccc2[nH]cc(C3CCN(CCc4cnn(-c5ccccc5)c4)CC3)c2c1 [Example 26, 5-bromo-3-<1-<2-<1-phenyl-1H-pyrazol-4-yl>ethyl>-4-piperidinyl>-1H-indoleoxalate] |
| 9.5 | COc1ccc2[nH]cc(C3CCN(CCc4cnn(-c5ccccc5)c4)CC3)c2c1 [Example 27, 5-methoxy-3-<1-<2-<1-phenyl-1H-pyrazol-4-yl>ethyl>-4-piperidinyl>-1H-indoleoxalate] |
| 24 | NC(=O)c1ccc2[nH]cc(C3CCN(CCc4cnn(-c5ccccc5)c4)CC3)c2c1 [Example 28, 5-carboxamido-3-<1-<2-<1-phenyl-1H-pyrazol-4-yl>ethyl>-4-piperidinyl>-1H-indole] |
| 10.4 | Fc1ccccc1-n1cc(CCN2CCC(c3c[nH]c4ccc(Cl)cc34)CC2)cn1 [Example 29, 5-chloro-3-<1-<2-<1-(2-fluorophenyl)-1H-pyrazol-4-yl>ethyl>-4-piperidinyl>- 1H-indole] |
| 51 | Fc1cccc(-n2cc(CCN3CCC(c4c[nH]c5ccc(Cl)cc45)CC3)cn2)c1 [Example 30, 5-chloro-3-<1-<2-<1-(3-fluorophenyl)-1H-pyrazol-4-yl>ethyl>-4-piperidinyl>- 1H-indole oxalate] |
| 11.5 | Fc1ccc(-n2cc(CCN3CCC(c4c[nH]c5ccc(Cl)cc45)CC3)cn2)cc1 [Example 31, 5-chloro-3-<1-<2-<1-(4-fluorophenyl)-1H-pyrazol-4-yl>ethyl>-4-piperidinyl>- 1H-indole oxalate] |
| 44.1 | Clc1ccc2[nH]cc(C3CCN(CCc4cnn(-c5ccccc5Cl)c4)CC3)c2c1 [Example 32, 5-chloro-3-<1-<2-<1-(2-chlorophenyl)-1H-pyrazol-4-yl>ethyl>-4-piperidinyl>- 1H-indole oxalate] |
| 85.5 | Clc1cccc(-n2cc(CCN3CCC(c4c[nH]c5ccc(Cl)cc45)CC3)cn2)c1 [Example 33, 5-chloro-3-<1-<2-<1-(3-chlorophenyl)-1H-pyrazol-4-yl>ethyl>-4-piperidinyl>- 1H-indole oxalate] |
| 161 | Clc1ccc(-n2cc(CCN3CCC(c4c[nH]c5ccc(Cl)cc45)CC3)cn2)cc1 [Example 34, 5-chloro-3-<1-<2-<1-(4-chlorophenyl)-1H-pyrazol-4-yl>ethyl>-4-piperidinyl>- 1H-indole] |
| 48.4 | Clc1ccc2[nH]cc(C3CCN(CCc4cnn(-c5ccccc5Br)c4)CC3)c2c1 [Example 35, 5-chloro-3-<1-<2-<1-(2-bromophenyl)-1H-pyrazol-4-yl>ethyl>-4-piperidinyl>-1H-indole oxalate] |
| 142 | Clc1ccc2[nH]cc(C3CCN(CCc4cnn(-c5cccc(Br)c5)c4)CC3)c2c1 [Example 36, 5-chloro-3-<1-<2-<1-(3-bromophenyl)-1H-pyrazol-4-yl>ethyl>-4-piperidinyl>-1H-indole oxalate] |
| 65.6 | Clc1ccc2[nH]cc(C3CCN(CCc4cnn(-c5ccc(Br)cc5)c4)CC3)c2c1 [Example 37, 5-chloro-3-<1-<2-<1-(4-bromophenyl)-1H-pyrazol-4-yl>ethyl>-4-piperidinyl>-1H-indole] |

| Ki [nM] | SMILES |
| --- | --- |
| 77.4 | Clc1ccc2[nH]cc(C3CCN(CCc4cnn(-c5ccc(I)cc5)c4)CC3)c2c1 [Example 38, 5-chloro-3-<1-<2-<1-(4-iodophenyl)-1H-pyrazol-4-yl>ethyl>-4-piperidinyl>-1H-indole oxalate] |
| 63.5 | COc1ccccc1-n1cc(CCN2CCC(c3c[nH]c4ccc(Cl)cc34)CC2)cn1 [Example 39, 5-chloro-3-<1-<2-<1-(2-methoxyphenyl)-1H-pyrazol-4-yl>ethyl>-4-piperidinyl>-1H-indole oxalate] |
| 12.7 | COc1ccc(-n2cc(CCN3CCC(c4c[nH]c5ccc(Cl)cc45)CC3)cn2)cc1 [Example 40, 5-chloro-3-<1-<2-<1-(4-methoxyphenyl)-1H-pyrazol-4-yl>ethyl>-4-piperidinyl>-1H-indole] |
| 153 | Cc1ccccc1-n1cc(CCN2CCC(c3c[nH]c4ccc(Cl)cc34)CC2)cn1 [Example 41, 5-chloro-3-<1-<2-<1-(2-methylphenyl)-1H-pyrazol-4-yl>ethyl>-4-piperidinyl>- 1H-indole oxalate] |
| 43.2 | Cc1cccc(-n2cc(CCN3CCC(c4c[nH]c5ccc(Cl)cc45)CC3)cn2)c1 [Example 42, 5-chloro-3-<1-<2-<1-(3-methylphenyl)-1H-pyrazol-4-yl>ethyl>-4-piperidinyl>- 1H-indole oxalate] |
| 37.7 | Cc1ccc(-n2cc(CCN3CCC(c4c[nH]c5ccc(Cl)cc45)CC3)cn2)cc1 [Example 43, 5-chloro-3-<1-<2-<1-(4-methylphenyl)-1H-pyrazol-4-yl>ethyl>-4-piperidinyl>- 1H-indole] |
| 53.9 | Fc1ccc2[nH]cc(C3CCN(CCc4cc[nH]c4)CC3)c2c1 [Example 44, 5-fluoro-3-<1-<2-<1H-pyrrol-3-yl>ethyl>-4-piperidinyl>-1H-indole oxalate] |
| 27 | Fc1ccc2[nH]cc(C3CCN(CCc4ccccn4)CC3)c2c1 [Example 45, 5-fluoro-3-<1-<2-<pyridin-2-yl>ethyl>-4-piperidinyl>-1H-indoledihydrochloride] |
| 5.3 | Fc1ccc2[nH]cc(C3CCN(CCc4ccncc4)CC3)c2c1 [Example 46, 5-fluoro-3-<1-<2-<pyridin-4-yl>ethyl>-4-piperidinyl>-1H-indoledihydrochloride] |
| 115 | Fc1ccc2[nH]cc(C3CCN(CCc4cccnc4)CC3)c2c1 [Example 47, 5-fluoro-3-<1-<2-<pyridin-3-yl>ethyl>-4-piperidinyl>-1H-indolehydrochloride monohydrate] |
| 8.1 | Fc1ccc2[nH]cc(C3CCN(CCc4cn[nH]c4)CC3)c2c1 [Example 48, 5-fluoro-3-<1-<2-<1H-pyrazol-4-yl>ethyl>-4-piperidinyl>-1H-indoledihydrochloride] |
| 1.4 | Cn1cc(CCN2CCC(c3c[nH]c4ccc(O)cc34)CC2)cn1 [Example 49, 5-hydroxy-3-<1-<2-<1-methyl-1H-pyrazol-4-yl>ethyl>-4-piperidinyl>-1H-indoleoxalate] |
| 2.3 | CC(C)n1cc(CCN2CCC(c3c[nH]c4ccc(O)cc34)CC2)cn1 [Example 50, 5-hydroxy-3-<1-<2-<1-(1-methylethyl)-1H-pyrazol-4-yl>ethyl>-4-piperidinyl>-1H-indole] |
| 4.4 | Oc1ccc2[nH]cc(C3CCN(CCc4cnn(C5CCCCC5)c4)CC3)c2c1 [Example 51, 5-hydroxy-3-<1-<2-<1-cyclohexyl-1H-pyrazol-4-yl>ethyl>-4-piperidinyl>-1H-indole oxalate] |
| 2.4 | Oc1ccc2[nH]cc(C3CCN(CCc4cnn(-c5ccccc5)c4)CC3)c2c1 [Example 52, 5-hydroxy-3-<1-<2-<1-phenyl-1H-pyrazol-4-yl>ethyl>-4-piperidinyl>-1H-indole] |
| 1.1 | CCCn1cc(CCN2CCC(c3c[nH]c4ccc(O)cc34)CC2)cn1 [Example 53, 5-hydroxy-3-<1-<2-<1-propyl-1H-pyrazol-4-yl>ethyl>-4-piperidinyl>-1H-indole] |
| 42 | Clc1ccc2[nH]cc(C3CCN(CCCc4cn[nH]c4)CC3)c2c1 [Example 54, 5-chloro-3-<1-<3-<1H-pyrazol-4-yl>propyl>-4-piperidinyl>-1H-indole oxalate] |

| SMILES | Ki [nM] |
| --- | --- |
| CC(C)n1cc(CCN2CC=C(c3c[nH]c4ccc(Cl)cc34)CC2)cn1 [Example 55, 5-chloro-3-<1,2,3,6-tetrahydro-1-<2-<1-(1-ethylmethyl)-1H-pyrazol-4-yl>ethyl>-4-pyridinyl>-1H-indole] | 7.4 |
